The results in this text go back to patent publication US11344493B2, “Cleavable surfactant” (FIRMENICH SA, priority 2017, dated 2022).

Series [1] can be described thus: Surface tension of aqueous solutions (Kruss DSA 10 MK2 Drop Shape Analysis). To be noted: for surface tension / surface activity: aqueous solution 1% wt, FIG. 2; for critical concentration (CMC) and self-aggregation in micelles: surface tension as function of concentration, FIG. 3. Format: physicochemical. The method, then: The surface activity of aqueous solutions of typical well known surfactants at concentration of 1% wt was measured by Kruss DSA 10 MK2 Drop Shape Analysis System. In parallel, the HLB value of the surfactant molecules was calculated by using ECL model. FIG. 2 represented the correlation between the surface tension and the calculated HLB values (black circles). The curve reached a saturation value at HLB 18, which was the limit of the HLB range for the compound of formula (I). All molecules having HLB higher than 18 are not part of the present invention due to a strong water solubility and an insufficient surface activity.
The surface tension of compounds of formula (I): Imine F, Imine D, Imine E, Imine B and of comparative Imine C1, was measured as well and the data were added to FIG. 2 (grey squares). […] The HLB calculated for this molecule was higher than 18 and therefore out of the limits fixed in the present invention.
As a comparative example, the compound Imine C7 reported in Polymer 2014, vol. 55, pages 1443-1451 was synthetized (see Example 3 g)) and surface tension of the aqueous solution of 1% wt of this molecule was measured. The data was included in FIG. 2 (black triangle).
The surface tension as function of the concentration of Imine compounds F and C1 was measured and presented on FIG. 3.

A short description of series [2]: Hydrolysis of imines in deuterium oxide in the presence of co-surfactants. Format: physicochemical. Conditions: c0 10 mM. The method, then: The influence of the presence of (co-)surfactants on the hydrolysis of imines according to formula (I) was investigated by ^1H NMR spectroscopy in deuterium oxide (0.7 mL) as described in Example 5 with an initial imine concentration of 10 mM and 4 wt % of an additional surfactant. The following surfactants were tested: sodium dodecyl sulfate (SDS), sodium laureth sulphate (Texapon® NSO IS; trademark from BASF and commercially available from BASF), hexadecyl-trimethyl-ammonium bromide (cetrimonium bromide), 2,5,8,11,14,17,20,23,26,29,32,35,38,41,44,47,50,53,56,59,62,65,68,71,74-pentacosaoxahexaheptacontan-76-yl stearate (PEG25Monostearate), (polyethylene glycol)9,10 4-(1,1,3,3-tetramethylbutyl)-phenyl ether (Triton® X-100; trademark from Dow Chemical and commercially available from Sigma Aldrich), polyoxyethylene 20 sorbitan monooleate (Tween® 80; trademark from Uniquema, ICI Americas Inc. and commercially available from Sigma Aldrich).

The nature of series [3]: Solubilizing capacity of imines for a model perfume in water. To be noted: for Fragrance/Surfactant Weight Ratio: transparent solution of model perfume in water; for Imine: minimal value of surfactant necessary to obtain a transparent solution: water 9.0 g and model perfume 0.3 g. Format: physicochemical. The method, then:
Water (9.0 g) and the model perfume composition of Table 8 (0.3 g) are mixed under gentle agitation. The resulting solution is turbid. Imines of formula (I) are then added until a transparent solution was obtained. The ratio fragrance to surfactant indicates the solubilizing capacity of the imines wherein higher ratio indicates higher solubilizing capacity of the imine.

Series [4] is classed as physicochemical. Conditions: pH 2.6. The text has this:
Compounds according to formula (I) were included into citral containing microemulsions formed by mixing a buffer solution at pH=2.6 (48% citric acid and 3.2% NaOH in water), Tween® 80 (trademark from Uniquema, ICI Americas Inc. and commercially available from Sigma Aldrich) and citral in the quantities listed in Table 10. […] The two solutions contained equimolar amounts of citral. At different time intervals the different formulations (0.305 g) were extracted by adding an aqueous solution of NaCl (15%, 2.745 g) and iso-octane (3.050 g). The mixtures were stirred (at 500 rpm for 10 min) and left equilibrating (5 min) to separate into two well distinguished phases. The phases were carefully separated and the organic phase (20 μL) analysed by GC/MS. GC/MS analyses were carried out on an Agilent 6890N Network GC system and an Agilent 5973 Network MS. […] Citral was analyzed by single ion monitoring and the extracted citral concentrations were determined by external standard calibration. […] The citral concentration measured in the extraction experiments as a function of time (FIG. 1), were fitted with Equation 2. The degradation rates, as well as the initial maximum citral concentrations were determined.

Series [5] is described as follows: Equilibration of imines in deuterium oxide (1H NMR). To be noted: conditions of Table 3. Format: physicochemical. The method, then:
(§1) The compounds according to formula (I) at different concentrations (c=10 . . . 500 mM) were individually dissolved in deuterium oxide (0.7 mL) at room temperature. The pD was measured and the hydrolysis of the imine was followed by ^1H NMR until an equilibrium was reached. The imine concentration at equilibrium was determined. Reactions with constant pD were either performed at unmodified pD (basic) or in a 4-(2-hydroxyethyl)-1-piperazineethanesulfonic acid (HEPES) buffer (slightly acidic). The data summarized in Table 3 were obtained from the measurements.

Series [6] can be described thus: Hydrolysis of imines in model formulation with Texapon NSO IS. Format: physicochemical. To be noted: Texapon NSO IS 4 wt % in deuterium oxide, c0 10 mM. The protocol:
To investigate the hydrolysis of the imines according to formula (I), a simple model formulation in deuterium oxide was prepared. Freeze-dried Texapon® NSO IS (trademark from BASF and commercially available from BASF) (4 wt %) was dissolved in deuterium oxide (95 wt %) at room temperature. The imine according to formula (I) (1 wt %) was added to the formulation at the beginning of the experiment (t=0), the pH was measured and the NMR measurements were started.

Series [7] can be described thus: Kinetics of hydrolysis of imines in deuterium oxide (1H NMR). To be noted: for order of hydrolysis kinetics: t1/2 versus initial concentration. Format: physicochemical. The method, then: as §1
Series [8] can be described thus: Hydrolysis of imines in model formulation with Hostapur SAS 60 and Genapol LA 70. Format: physicochemical. To be noted: Hostapur SAS 60 7 wt % and Genapol LA 70 17 wt % in deuterium oxide, c0 10 mM, pD 10.4. The method, then:
A second aqueous surfactant solution was prepared by dissolving freeze-dried sodium C14-17 sec-alkyl sulphonate (Hostapur® SAS 60; trademark from Clariant GmbH and commercially available from Clariant GmbH; 7 wt %) and freeze-dried ethoxylated C12-16 alcohols (Genapol® LA 70; trademark from Clariant GmbH and commercially available from Clariant GmbH; 17 wt %) in deuterium oxide (75 wt %) at room temperature. Then, sodium deuteroxide 40% in deuterium oxide was added until reaching a pH of 10. The imine according to formula (I) (1 wt %) was added to the formulation at the beginning of the experiment (t=0), the pH was measured and the NMR measurements were started.

Take `COCCOCCOCCOCCOCCOCCOCCOCCOCCOCCOCCOCCOCCOCCOCCOCCOCCOCCOCCOCC(C)OCC(C)OCC(C)N=CC=C(C)CCC=C(C)C` (mixture of isomers) [Imine D]: in series [1], the “surface tension / surface activity” value is listed as “strong surface activity”. Moreover, the “concentration at equilibrium (ceq)” value in series [2] (co-surfactant Certrimmonium bromide 4 wt %, pD 10.5) was 4750 µM; in series [2] (co-surfactant PEG25Monostearate 4 wt %, pD 10.5), 2790 µM; in series [2] (co-surfactant SDS 4 wt %, pD 10.5), 8930 µM; in series [2] (co-surfactant Texapon NSO IS 4 wt %, pD 10.5) it was 5960 µM; in series [2] (co-surfactant none, pD 10.5), 2950 µM. Also, the “Fragrance/Surfactant Weight Ratio” value in series [3] is 5.2. For the same compound, in series [3], the “Imine: minimal value of surfactant necessary to obtain a transparent solution” value (from here on “Imine: minimal value”) was found to be 14.36%.

For `CCCCCCCC=CCCC=NC(C)COC(C)COC(C)COC(C)COC(C)COC(C)COC(C)COC(C)COC(C)COC(C)COCCOCCOCCOCCOCCOCCOCCOCCOCCOCCOCCOCCOCCOCCOCCOCCOCCOCCOCCOCCOCCOCCOCCOCCOCCOCCOCCOCCOCCOCCOCCOC` (mixture of isomers) [Imine G], in series [3], the “Fragrance/Surfactant Weight Ratio” value stood at 5.3 and the “Imine: minimal value” value is 14.68%.

Regarding `COCCOCCOCCOCCOCCOCCOCCOCCOCCOCCOCCOCCOCCOCCOCCOCCOCCOCCOCCOCCOCCOCCOCCOCCOCCOCCOCCOCCOCCOCCOCCOCC(C)OCC(C)OCC(C)OCC(C)OCC(C)OCC(C)OCC(C)OCC(C)OCC(C)OCC(C)N=CC=C(C)CCC=C(C)C` (mixture of isomers) [Imine E], the “surface tension / surface activity” value in series [1] is “strong surface activity”. The “decrease of the citral degradation rate” value in series [4] turned out to be 1.53 times. Besides, the “concentration at equilibrium (ceq)” value in series [2] (co-surfactant PEG25Monostearate 4 wt %, pD 10.4) stood at 7500 µM; in series [2] (co-surfactant PEG25Monostearate 4 wt %, phosphate buffer (pD 4.4)), 6400 µM; in series [2] (co-surfactant none, pD 10.4), 2800 µM. For the same compound, in series [3], the “Fragrance/Surfactant Weight Ratio” value is 9.3. Moreover, the “Imine: minimal value” value in series [3] stood at 23.14%.

With `CCCCCCCC=CCCC=NC(C)COC(C)COC(C)COCCOCCOCCOCCOCCOCCOCCOCCOCCOCCOCCOCCOCCOCCOCCOCCOCCOCCOCCOC` (mixture of isomers) [Imine F], in series [1], the “surface tension / surface activity” value is “strong surface activity”; the “critical concentration (CMC) and self-aggregation in micelles” value is listed as “existence of critical concentration (CMC)”. Also, in series [3], the “Fragrance/Surfactant Weight Ratio” value is listed as 2.7 and the “Imine: minimal value” value is given as 7.92%.

For the compound `COCCOCCOCCOCCOCCOCCOCCOCCOCCOCCOCCOCCOCCOCCOCCOCCOCCOCCOCCOCC(C)OCC(C)OCC(C)N=Cc1ccc(O)c(OC)c1` (mixture of isomers) [Imine C1, reference compound], the “stability of the imine at equilibrium” value in series [5] is “mostly cleaved”. Besides, in series [1], the “surface tension / surface activity” value was “high surface tension value”; the “critical concentration (CMC) and self-aggregation in micelles” value was “absence of CMC and self-aggregation”.

For the compound `CCCCCCC(C=NC(C)COC(C)COC(C)COC(C)COC(C)COC(C)COC(C)COC(C)COC(C)COC(C)COCCOCCOCCOCCOCCOCCOCCOCCOCCOCCOCCOCCOCCOCCOCCOCCOCCOCCOCCOCCOCCOCCOCCOCCOCCOCCOCCOCCOCCOCCOCCOC)=Cc1ccccc1` (mixture of isomers) [Imine C], the “half-time of hydrolysis (t1/2)” value in series [6] (pD 10.5) came out at 17.5 h. In series [3], the “Fragrance/Surfactant Weight Ratio” value came out at 4.0 and the “Imine: minimal value” value is reported as 11.43%. Moreover, the “order of hydrolysis kinetics” value in series [7] is listed as “pseudo-zero order kinetics”.

Consider `CCCCCCC(C=NCCc1ccc(OCCOCCOCCOCCOCCOCCOCCOCCOCCOCCOCCOC)cc1)=Cc1ccccc1` [Imine A], for which, in series [8], the “half-time of hydrolysis t1/2 (est.)” value is 42.5 h. In addition, in series [6] (pD 10.6), the “half-time of hydrolysis (t1/2)” value stood at 9.2 h. Also, in series [7] (c0 10 mM, pD 10.1), the “half-time of hydrolysis (t1/2)” value was found to be 59.5 h and the “initial rate of hydrolysis (v0)” value is reported as 1.3 10^−3 mM/min.

As to `CCCCCCC(C=NCCOCCOCCOCCOCCOCCOCCOCCOCCOCCOCCOC)=Cc1ccccc1` [Imine C5], the “half-time of hydrolysis (t1/2)” value in series [6] (pD 10.5) is 4.3 h; in series [7] (c0 10 mM, pD 10.5) it was 4.56 h; in series [7] (c0 25 mM, pD 10.5), 8.4 h; in series [7] (c0 100 mM, pD 10.4) it was 5.28 h. Besides, the “initial rate of hydrolysis (v0)” value in series [6] (pD 10.5) is given as 35.4 10^−3 mM/min; in series [7] (c0 10 mM, pD 10.5) it was 14.8 10^−3 mM/min; in series [7] (c0 25 mM, pD 10.5) it was 23.7 10^−3 mM/min; in series [7] (c0 100 mM, pD 10.4), 856 10^−3 mM/min. In addition, in series [7] (at all concentrations), the half-time of hydrolysis entry is given as “around 5 h”. The “order of hydrolysis kinetics” value in series [7] is “pseudo-first order kinetics”.
